Earlier results on two compounds are cited in US12350296B2, “Liquid propolis extract, its formulation and use thereof” (Apiotix Technologies D.O.O., priority 2019, dated 2025).

Where two headings read alike, the source gives them in different places.

This data set relates to subclinical mastitis. The note with it: for healing (cure) of cases: subclinical mastitis caused by S. uberis.

Take `CC[C@@H]1CCN[C@H](C(=O)N[C@@H]([C@H]2O[C@H](SC)[C@H](O)[C@@H](O)[C@H]2O)[C@H](C)Cl)C1` [pirlimycin]: the “healing (cure) of cases” value is, setting by setting: (therapy for 5 days) 68.8%; (therapy for 8 days) 80%; (two-day therapy) 58.1%.

For `CO/N=C(\C(=O)N[C@@H]1C(=O)N2C(C(=O)O)=C(CSC(=O)c3ccco3)CS[C@H]12)c1csc(N)n1` [ceftiofur], the bacteriological cure is 66% (daily i.mam. application during 8 days) and 54% (i.mam. application, after 5 days).
